Test results from US20160199406A1, “NON-[…] IN COMBINATION WITH LIQUID […] FOR ORGAN PROTECTION” (priority 2013, published 2016).

What was measured:
[1] = normobaric conditions, cited from earlier work
[2] = system: injured retinal ganglion cells; assay: Annexin V-PeCy7 flow cytometric evaluation of early apoptosis in injured retinal ganglion cells after unilateral optic nerve axotomy; format: in vivo, B6.Cg-Tg(Thy1-YFP)16Jrs/J mice
From the text: B6.Cg-Tg(Thy1-YFP)16Jrs/J mice: Thy1-YFP mice were exposed to a vapor anesthetic agent (Isofluorane or Sevofluorane), in an anesthetic induction chamber. Animals were temperature probed, sterile eye lubricant was applied to prevent corneal damage, and an incision was made adjacent to the orbital ridge. The left orbit was exposed, and the lacrimal gland gently resected and covered with saline soaked gauze. […] Using microscissors, the dura was resected, and the optic nerve was transected approximately 0.5 mm from the posterior aspect of the eye bulb. Preservation of blood supply was evaluated through the dissecting microscope focused through a dilated pupil and a coverslip. The skin was closed with suture clips, analgesics (buprenorphine in saline) administered, and the mouse was transferred to an Argon (70%)/Oxygen (30%) perfused air chamber on a warming mat. […] Control mice were exposed to normal atmospheric conditions post-injury (See FIG. 1). Internal surgical controls were the uninjured retina of the contralateral eye.
Retinal Dissection, dissociation, and staining of cells: Mice were lightly anesthetized with Isofluorane and killed via cervical dislocation. Eyes were rapidly removed and placed in ice cold Hank's Balanced Salt Solution (HBSS). A single puncture to the conjunctiva was made, and corneas removed by microdissection. The ciliary epithelium and lens were then resected, and vitreous humor was visualized using triamcinolone acetonide solution to aid in removal by aspiration and microdissection. Free floating retinas were then transferred to fresh HBSS on ice, then transferred to 1 ml of enzyme solution containing Trypsin (MACS—Miltenyi Biotec). Following a 15 minute incubation at 37 degrees C. with periodic agitation, retinas were dissociated with fire polished pipettes and centrifuged. Pellets were washed in Annexin V binding buffer, and centrifuged. Pellets were the re-dissociated in DNAse-containing binding buffer, and stained for Annexin V-PeCy7 probe. Cells were washed, cell strained (40 um), and analyzed using a BD FacsAria III flow cytometer.
Flow cytometry and data analysis: Compensation and gating was established using unstained, YFP-only, Annexin V-only, and double-labeled cell samples. Dead cell assays (not shown) were also performed using propidium iodide and 7-AAD DNA intercalating dyes. Forward and side scatter gating were used to exclude debris, and YFP-positive cells were gated and used as the reference population. Quadrant analysis was used to identify and quantify Annexin V labeling within YFP expressing cells across groups. A within-subjects comparison was performed by comparing injured and uninjured retinas from the same animal. Difference scores (uninjured—injured Annexin V cell counts) were produced in order to normalize Annexin V background labeling in right eyes. All data are represented as means +/−1.0 standard error of the mean.

Row | Structure (SMILES) | concentration with capacity to provide anesthesia [1] [%] | anesthetic effects ([1]; high inspiratory concentrations) | difference score (uninjured - injured Annexin V cell counts within YFP-positive population) ([2]; 24 h post-injury, Argon (70%)/Oxygen (30%) chamber after surgery under Isofluorane or Sevofluorane, buprenorphine) | Annexin V binding in injured retinas ([2]; 48 h post-injury, Argon (70%)/Oxygen (30%) chamber post-injury) | neuroprotection ([2]; 72 hours post-injury) | neuroprotective effect in combination with liquid anesthetics ([2]; overall conclusion from the data) | time of peak of neuroprotection effect size ([2]; post-injury, Argon (70%)/Oxygen (30%))
1 | [Xe] [Xenon, xenon, reference compound] | 71 | – | – | – | – | – | –
2 | [Ar] [argon] | – | does not provide anesthetic effects | positive difference score | strong resistance to Annexin V binding | retained at 72 hours | provides a neuroprotective effect within the central nervous system | around 48 h
